PubChem BioAssay AID220 (DTP/NCI, 2004)
Several values for one entry are separate records, joined by “and”; a condition that tells them apart may be missing. Equal values may be shown once. Inconclusive results are not listed.

Tested on: CD8F1 mice, subcutaneous mammary adenocarcinoma, T/C%
Assay: NCI In Vivo Anticancer Drug Screen. Data for tumor model Mammary Adenocarcinoma CD8F1 (subcutaneous) in CD8F1
Details: higher = larger tumour
Summary of the method: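 Ratio of treated to vehicle-control outcome, based on either survival or tumor size, in mice bearing transplantable tumors given the test compound.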

[1] = endpoint: median tumor weight (est.), dose: 25.0 mg/kg/injection, schedule: Q07DX005 (ip), vehicle: saline
[2] = endpoint: median tumor weight (est.), dose: 50.0 mg/kg/injection, schedule: Q07DX005 (ip), vehicle: saline
[3] = endpoint: median tumor weight (est.), dose: 100.0 mg/kg/injection, schedule: Q07DX005 (ip), vehicle: saline

SMILES: CCCCCCCCCCCCCCC/C([O-])=N/[N+](C)(C)CC(C)O (configuration not stated)
- T/C (endpoint: median tumor weight change, dose: 125.0 mg/kg/injection, schedule: Q01DX001 (ip), vehicle: saline): 49 % of control
- T/C (endpoint: median tumor weight change, dose: 250.0 mg/kg/injection, schedule: Q01DX001 (ip), vehicle: saline): 96 % of control
- T/C (endpoint: median tumor weight change, dose: 500.0 mg/kg/injection, schedule: Q01DX001 (ip), vehicle: saline): 69 % of control

SMILES: C#CC[N+]12CN3CN(CN(C3)C1)C2
- T/C (endpoint: mean tumor weight, dose: 12.5 mg/kg/injection, schedule: Q07DX007 (ip), vehicle: saline): 48 % of control
- T/C (endpoint: mean tumor weight, dose: 25.0 mg/kg/injection, schedule: Q07DX007 (ip), vehicle: saline): 70 % of control
- T/C (endpoint: mean tumor weight, dose: 50.0 mg/kg/injection, schedule: Q07DX007 (ip), vehicle: saline): 81 % of control
- T/C (endpoint: mean tumor weight, dose: 100.0 mg/kg/injection, schedule: Q07DX007 (ip), vehicle: saline): 150 % of control
- T/C (endpoint: mean tumor weight, dose: 200.0 mg/kg/injection, schedule: Q07DX007 (ip), vehicle: saline): 97 % of control

SMILES: NC(Cc1ccc(N(CCCl)CCCl)cc1)C(=O)O (configuration not stated)
- T/C (endpoint: median tumor weight (est.), dose: 2.0 mg/kg/injection, schedule: Q07DX005 (ip), vehicle: Klucel (hydroxypropylcellulose) (HPC)): 39 % of control
- T/C (endpoint: median tumor weight (est.), dose: 4.0 mg/kg/injection, schedule: Q07DX005 (ip), vehicle: Klucel (hydroxypropylcellulose) (HPC)): 33 % of control

SMILES: O=C1C(=O)c2cccnc2-c2ncccc21
- T/C (endpoint: median tumor weight change, dose: 1.56 mg/kg/injection, schedule: Q01DX001 (ip), vehicle: Klucel (hydroxypropylcellulose) (HPC)): 107 % of control
- T/C (endpoint: median tumor weight change, dose: 3.12 mg/kg/injection, schedule: Q01DX001 (ip), vehicle: Klucel (hydroxypropylcellulose) (HPC)): 117 % of control

SMILES: CCC12C[N+]3([O-])CCc4c([nH]c5ccccc45)C(C(=O)OC)(c4cc5c(cc4OC)N(C)C4C(O)(C(=O)OC)C(OC(C)=O)C6(CC)C=CCN7CCC54C76)CC(C3)C1O2 (configuration not stated)
- T/C (endpoint: median tumor weight change, dose: 6.25 mg/kg/injection, schedule: Q01DX001 (ip), vehicle: water): 199 % of control
- T/C (endpoint: median tumor weight change, dose: 12.5 mg/kg/injection, schedule: Q01DX001 (ip), vehicle: water): 73 % of control
- T/C (endpoint: median tumor weight change, dose: 25.0 mg/kg/injection, schedule: Q01DX001 (ip), vehicle: water): 87 % of control
- T/C (endpoint: median tumor weight change, dose: 50.0 mg/kg/injection, schedule: Q01DX001 (ip), vehicle: water): 92 % of control
- T/C (endpoint: median tumor weight change, dose: 100.0 mg/kg/injection, schedule: Q01DX001 (ip), vehicle: water): 81 % of control

SMILES: Cc1cc2nc3c(=O)[nH]c(=O)nc-3n(CC(O)C(O)C(O)C(O)CO)c2cc1C (configuration not stated)
- T/C (endpoint: median tumor weight (est.), dose: 200.0 mg/kg/injection, schedule: Q07DX005 (ip), vehicle: suspension in saline): 87 % of control and 100 % of control
- T/C (endpoint: median tumor weight (est.), dose: 400.0 mg/kg/injection, schedule: Q07DX005 (ip), vehicle: suspension in saline): 58 % of control and 64 % of control

SMILES: COc1cc2cc(c1Cl)N1CC(O)C(C)(O)C(=O)NC(C)C(=O)OC(CC1=O)C1(C)OC1C(C)C1CC(O)(NC(=O)O1)C(OC)/C=C\C=C(\C)C2OC (configuration not stated)
- T/C (endpoint: median tumor weight change, dose: 8.0 micrograms/kg/injection, schedule: Q01DX001 (ip), vehicle: distilled water + alcohol): 101 % of control
- T/C (endpoint: median tumor weight change, dose: 16.0 micrograms/kg/injection, schedule: Q01DX001 (ip), vehicle: distilled water + alcohol): 111 % of control
- T/C (endpoint: median tumor weight change, dose: 64.0 micrograms/kg/injection, schedule: Q01DX001 (ip), vehicle: distilled water + alcohol): 121 % of control

SMILES: O=C(O)CC(NC(=O)CP(=O)(O)O)C(=O)O (configuration not stated)
- T/C [1]: 92 % of control
- T/C [2]: 94 % of control
- T/C [3]: 62 % of control
- T/C (endpoint: median tumor weight (est.), dose: 200.0 mg/kg/injection, schedule: Q07DX005 (ip), vehicle: saline): 56 % of control
- T/C (endpoint: median tumor weight (est.), dose: 400.0 mg/kg/injection, schedule: Q07DX005 (ip), vehicle: saline): 9 % of control
- T/C (endpoint: median tumor weight change, dose: 100.0 mg/kg/injection, schedule: Q01DX001 (ip), vehicle: saline): 81 % of control
- T/C (endpoint: median tumor weight change, dose: 200.0 mg/kg/injection, schedule: Q01DX001 (ip), vehicle: saline): 92 % of control
- T/C (endpoint: median tumor weight change, dose: 400.0 mg/kg/injection, schedule: Q01DX001 (ip), vehicle: saline): 85 % of control
- T/C (endpoint: median tumor weight change, dose: 800.0 mg/kg/injection, schedule: Q01DX001 (ip), vehicle: saline): 66 % of control

SMILES: CCCCCCCCCCCCCCCCP(=O)(OCCOCCCCCC)OCCOCCCCCC
- T/C (endpoint: median tumor weight (est.), dose: 3.12 mg/kg/injection, schedule: Q07DX005 (ip), vehicle: saline): 118 % of control
- T/C (endpoint: median tumor weight (est.), dose: 6.25 mg/kg/injection, schedule: Q07DX005 (ip), vehicle: saline): 156 % of control
- T/C (endpoint: median tumor weight (est.), dose: 12.5 mg/kg/injection, schedule: Q07DX005 (ip), vehicle: saline): 85 % of control
- T/C [1]: 72 % of control
- T/C [2]: 94 % of control
- T/C [3]: 55 % of control
